As a reminder, the Emax is the size of the effect at its maximum, as opposed to the concentration needed.

Where a name gives a salt, the structure may show the parent alone. Read-outs that look alike come from different tables or passages of the source.

The text below walks through data of patent US5510355A, “Depolarizing skeletal muscle relaxants” (priority 1994, dated 1996).

Assay [1] deals with T1, muscle-like nicotinic receptors (human clonal line TE671/RD) (Homo sapiens, UniProt P02708+P07510+Q07001).
T1 construct: these cells express muscle-like nicotinic receptors; endogenous in cells; host or cells: TE671/RD (human embryonal rhabdomyosarcoma line)
Briefly: cell-based. The conditions noted are these: for Emax: read-out: HUMAN MUSCLE Emax (maximal activation as percentage of that induced by acetylcholine); for potency relative to succinylcholine, in words: comparison of EC50 values with Sample No. C-2; for efficacy relative to succinylcholine, in words: comparison of Emax values with Sample No. C-2. How it is done: (§1) The selectivity at muscle nicotinic receptors of the various analogs described in this invention was determined by their functional efficacies and potencies at muscle and ganglionic sites.
(§2) Intact cells on dishes were used for functional studies.
(§3) The medium was removed and ^86 Rb^+ was quantitated using Cerenkov detection. […] Specific ion efflux was determined as the difference in isotope efflux between total and non-specific efflux samples. Dose-response curves were plotted and the concentration resulting in half maximal activation of specific ion flux through nicotinic receptors determined for human muscle and rat ganglionic preparations (EC50).

The test system of assay [2] is ganglionic-type neuronal nicotinic receptors (rat pheochromocytoma clonal line PC12). The class given is cell-based. How it is done: as §1
Ganglionic effects were established on the rat pheochromocytoma clonal line PC12 which is a continuous clonal cell line of neural crest origin derived from a tumor of the rat adrenal medulla expressing ganglionic-type neuronal nicotinic receptors. […] Discussion concerning the heterogeneity of nicotinic receptors subtypes is set forth in Lukas et al., Internatl. […] See, Fornasari et al., Neurosci.
as §2, §3

The mark [3] stands for this setting: human muscle, TE671/RD, 86Rb+ efflux, 4 minutes at 20° C., read-out: HUMAN MUSCLE EC50 (concentration resulting in half maximal activation of specific ion flux).
The mark [4] stands for this setting: rat ganglia, PC12, 86Rb+ efflux, 4 minutes at 20° C.; read-out: RAT GANGLIA EC50 (concentration resulting in half maximal activation of specific ion flux).

T1 sequence (P07510 23-517): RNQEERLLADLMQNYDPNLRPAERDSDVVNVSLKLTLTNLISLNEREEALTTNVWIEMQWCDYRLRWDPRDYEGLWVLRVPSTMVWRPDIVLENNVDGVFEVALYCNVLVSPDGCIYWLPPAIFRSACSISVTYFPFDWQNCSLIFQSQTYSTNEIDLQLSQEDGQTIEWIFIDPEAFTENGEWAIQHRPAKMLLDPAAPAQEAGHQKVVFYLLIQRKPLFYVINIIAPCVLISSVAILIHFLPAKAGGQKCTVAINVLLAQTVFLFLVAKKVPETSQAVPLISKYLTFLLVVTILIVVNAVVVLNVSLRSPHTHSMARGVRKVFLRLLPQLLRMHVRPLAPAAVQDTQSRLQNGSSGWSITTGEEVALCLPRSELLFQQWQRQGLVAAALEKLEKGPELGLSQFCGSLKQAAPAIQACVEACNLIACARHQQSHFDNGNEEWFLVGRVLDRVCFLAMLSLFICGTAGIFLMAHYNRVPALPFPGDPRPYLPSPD
T1 sequence (P02708 21-457): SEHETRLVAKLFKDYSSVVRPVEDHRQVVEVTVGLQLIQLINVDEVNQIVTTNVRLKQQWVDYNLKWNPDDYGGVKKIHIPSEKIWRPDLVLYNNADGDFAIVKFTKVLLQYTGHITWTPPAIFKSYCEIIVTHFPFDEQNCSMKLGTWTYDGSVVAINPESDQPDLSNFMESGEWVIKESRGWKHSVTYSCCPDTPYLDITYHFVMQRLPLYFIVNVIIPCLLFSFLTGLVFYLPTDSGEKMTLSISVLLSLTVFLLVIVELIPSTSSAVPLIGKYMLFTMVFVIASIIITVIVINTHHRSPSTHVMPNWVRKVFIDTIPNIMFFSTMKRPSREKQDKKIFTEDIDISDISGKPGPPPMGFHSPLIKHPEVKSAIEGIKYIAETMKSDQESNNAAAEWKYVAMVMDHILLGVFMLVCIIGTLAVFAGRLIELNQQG
T1 sequence (Q07001 22-517): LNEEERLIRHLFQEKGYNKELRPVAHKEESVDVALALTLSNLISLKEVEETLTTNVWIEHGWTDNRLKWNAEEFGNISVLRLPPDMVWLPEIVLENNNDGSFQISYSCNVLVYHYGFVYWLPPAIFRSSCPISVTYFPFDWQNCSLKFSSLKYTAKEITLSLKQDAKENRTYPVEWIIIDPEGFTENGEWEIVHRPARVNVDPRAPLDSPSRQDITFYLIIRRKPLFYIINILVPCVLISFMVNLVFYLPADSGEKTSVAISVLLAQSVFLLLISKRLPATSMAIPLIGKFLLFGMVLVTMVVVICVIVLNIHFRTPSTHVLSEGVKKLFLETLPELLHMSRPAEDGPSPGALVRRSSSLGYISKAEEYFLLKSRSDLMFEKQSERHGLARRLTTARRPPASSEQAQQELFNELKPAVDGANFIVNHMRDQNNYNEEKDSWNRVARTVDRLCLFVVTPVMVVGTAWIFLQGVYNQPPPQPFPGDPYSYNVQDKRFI

In the case of `C[N+](C)(C)CCOC(=O)CCC(=O)OCC[N+](C)(C)C` [Sample No. C-2, succinylcholine chloride, reference compound], the Emax in assay [1] (TE671/RD) is 95%. Besides, the EC50 in assay [1] (setting [3]) was determined as 30 µM. Besides, in assay [2], the “RAT GANGLIA Emax (maximal activation as percentage of that induced by acetylcholine)” value is reported as 0%.
As to `CC(=O)OCC1CC2CCN1CC2.[O-][Cl+3]([O-])([O-])O` (racemic) [Sample No. 4, (+/-)-2-acetoxymethylquinuclidine perchlorate], the Emax in assay [1] (TE671/RD) came out at 200%. The EC50 in assay [1] (setting [3]) came out at 3 µM. Moreover, in assay [1] (human muscle), the “potency relative to succinylcholine, in words” value is “more potent” and the “efficacy relative to succinylcholine, in words” value is “more efficacious than succinylcholine”. Also, the “RAT GANGLIA Emax (maximal activation as percentage of that induced by acetylcholine)” value in assay [2] is 60%. Besides, the “ganglionic effects, in words” value in assay [2] (ganglionic-type receptors) is listed as “only at relatively high concentrations”. Also, in assay [2] (setting [4]), the EC50 turned out to be 50 µM.
In assay [1], `c1cncc(C2=NCCCC2)c1` [Sample No. 3, anabaseine dihydrochloride] displayed an EC50 of 2 µM. The Emax in assay [1] (TE671/RD) was 200%. Moreover, in assay [1] (human muscle), the “potency relative to succinylcholine, in words” value is “more potent” and the “efficacy relative to succinylcholine, in words” value is recorded as “more efficacious than succinylcholine”. For the same compound, the “ganglionic effects, in words” value in assay [2] (ganglionic-type receptors) is reported as “only at relatively high concentrations”. The “RAT GANGLIA Emax (maximal activation as percentage of that induced by acetylcholine)” value in assay [2] (rat ganglia, PC12, % of acetylcholine maximum) is 80%. Besides, the EC50 in assay [2] (read-out: RAT GANGLIA EC50 (concentration resulting in half maximal activation of specific ion flux); rat ganglia, PC12, 86Rb+ efflux, 4 minutes at 20° C.) was 50 µM.
Take `Fc1cncc(C2CCCN2)c1` (racemic) [Sample No. 5, (+/-)-5-fluoronornicotine]: the Emax in assay [1] (TE671/RD) was 160%. For the same compound, the EC50 in assay [1] (setting [3]) is 30 µM. In assay [1] (human muscle), the “potency relative to succinylcholine, in words” value is on record as “at least as potent as succinylcholine” and the “efficacy relative to succinylcholine, in words” value is reported as “more efficacious than succinylcholine”. Further, the “RAT GANGLIA Emax (maximal activation as percentage of that induced by acetylcholine)” value in assay [2] is given as below 10%.
In the case of `Fc1cncc(C2=NCCCC2)c1` [Sample No. 2, 5-fluoroanabaseine dipicrate], the Emax in assay [1] (TE671/RD) is 220%. Besides, the EC50 in assay [1] (setting [3]) is 1 µM. For the same compound, in assay [1] (human muscle), the “potency relative to succinylcholine, in words” value is on record as “very potent relative to succinylcholine” and the “efficacy relative to succinylcholine, in words” value was “very efficacious relative to succinylcholine”. In addition, the “RAT GANGLIA Emax (maximal activation as percentage of that induced by acetylcholine)” value in assay [2] was 0%. Moreover, the “ganglionic effects, in words” value in assay [2] (ganglionic-type receptors) is recorded as “no observed ganglionic effects”.
For `O=C(O)/C=C/C(=O)O.O=C(O)/C=C/C(=O)O.c1cncc(C2CC3CCN2CC3)c1` (racemic) [Sample No. 1, (+/-)-2-(3-pyridyl)-quinuclidine difumarate], the Emax in assay [1] (TE671/RD) was found to be 130%. Also, the EC50 in assay [1] (setting [3]) turned out to be 0.055 µM; in assay [2] (setting [4]), 2 µM. Besides, the “potency relative to succinylcholine, in words” value in assay [1] (human muscle) was “more potent”. Further, the “efficacy relative to succinylcholine, in words” value in assay [1] (human muscle) is given as “more efficacious than succinylcholine”. Moreover, in assay [2], the “RAT GANGLIA Emax (maximal activation as percentage of that induced by acetylcholine)” value was found to be 100%. For the same compound, the “ganglionic effects, in words” value in assay [2] (ganglionic-type receptors) was “only at relatively high concentrations”.
For the compound `CN1CCCC1c1cncc(Cl)c1.[O-][Cl+3]([O-])([O-])O` (racemic) [Sample No. 6, (+/-)-5-chloronicotine perchlorate], the Emax in assay [1] (TE671/RD) came to 110%. The EC50 in assay [1] (setting [3]) turned out to be 30 µM. Further, in assay [1] (human muscle), the “potency relative to succinylcholine, in words” value was “at least as potent as succinylcholine” and the “efficacy relative to succinylcholine, in words” value is listed as “more efficacious than succinylcholine”. Also, in assay [2], the “RAT GANGLIA Emax (maximal activation as percentage of that induced by acetylcholine)” value was 0%.
`CC(=O)OCC[N+](C)(C)C` [C-1, acetylcholine, reference compound]: in assay [2], the “RAT GANGLIA Emax (maximal activation as percentage of that induced by acetylcholine)” value stood at 100%.
